According to US20080139458A1, “Methods of Treatment For Injured or Diseased Joints” (priority 2004, published 2008):

B1: Trypsin: TPCK-treated trypsin (Sigma-Aldrich) used to treat lubricin, BSF and murine joints (protein, UniProt P00760 24-246, looked up)
Serine protease 1: IVGGYTCGANTVPYQVSLNSGYHFCGGSLINSQWVVSAAHCYKSGIQVRLGEDNINVVEGNEQFISASKSIVHPSYNSNTLNNDIMLIKLKSAASLNSRVASISLPTSCASAGTQCLISGWGNTKSSGTSYPDVLKCLKAPILSDSSCKSAYPGQITSNMFCAGYLEGGKDSCQGDSGGPVVCSGKLQGIVSWGSGCAQKNKPGVYTKVCNYVSWIKQTIASN
modifications: TPCK-treated
notes: TPCK-treated trypsin (Sigma-Aldrich) used to treat lubricin, BSF and murine joints

Assays:
excised murine joints = test: Ex vivo friction coefficient of excised murine joints after intra-articular protease (modified Stanton pendulum); parameters: species or system murine (Svev129 mice); details: for Friction coefficient μ ± S.D.: n = 4; for average increase in μ: after vs before intra-articular injection of 0.05 U, 2 hours at room temperature
Protocol: Murine joint friction measurements were performed ex vivo in a modified Stanton pendulum configuration (Chamely, New Scientist 6:60, 1959) illustrated in FIG. 2. Excised murine joints, from 8 week old Svev129 mice, weighing approximately 20 grams (Taconic, Germantown, N.Y.), were stripped of supporting connective tissue and musculature, while the synovium was left undisturbed. The femur and tibia were severed mid-length and covered with connecting plexiglass tubing. The center of the joint served as the axis of rotation of a 1 Hz pendulum. The joints were loaded with 20 grams and allowed to oscillate. The pendulum was set in motion at an angle of 30° off the perpendicular axis. The pendulum motion was videotaped and post-hoc analysis was performed to establish baseline μ. The deceleration of the pendulum, a=dv/dt, was used to calculate μ. Velocity (v) was calculated from the equation: v=(2 gh)^1/2 where h is the height from where the pendulum reached apogee to the point of maximum velocity at a=0. The μ of murine joint was calculated to be equal a/g. Presently, this calculation neglects aerodynamic drag and assumes g equals 9.81 m/s^2. A 5 μL protease solution containing 0.05 U of CB, NE, α-chymotrypsin, or trypsin was delivered intra-articularly. The limbs were treated at room temperature for 2 hours and the limbs were subsequently allowed to oscillate to estimate μ following treatment with the protease.

[1] = tested on: bovine synovial fluid (BSF); test: In vitro friction assay of protease-treated bovine synovial fluid; assay type: biochemical; details: enzymes 0.5 U/mL, BSF = no enzyme, latex:glass bearing
Protocol: (§1) Human lubricin was purified from pooled SF aspirates of patients undergoing total knee replacement as described previously (Jay et al., Gluconj. J. 18:807-815, 2001). BSF was aspirated percutaneously from the lateral aspect of radiocarpal joints of freshly slaughtered cattle with sterile 18 gauge needles after cleansing the skin with alcohol swabs. The cattle were 1 year old and of both sexes (PelFreeze Corp., Little Rock, Ark.). The BSF was centrifuged at 20,000 g at 4° C. to remove cell debris and the BSF was stored at −20° C. Aliquots of purified human lubricin (1 mL, 250 μg/1 mL), and BSF (1 mL) were subjected to protease treatments with CB, NE, α-chymotrypsin, or trypsin. These enzymes were utilized as follows: 1) 0.5 U/mL of CB (Sigma-Aldrich, Saint Louis, Mo., one unit liberates 1 nanomole of 7-amino-4-methylcoumarin from Z-Arg-Arg 7-amido-4-methylcoumarin per min at pH 6.0 at 40° C.) reconstituted in 0.25 M Na acetate buffer, pH 5.5; 2) 0.5 U/mL NE (Sigma-Aldrich, one unit is defined as the release of 1 mole of p-nitrophenol per sec at 37° C.) reconstituted in 100 mM Tris-HCl, 100 mM CaCl2, pH 8.8; 3) 0.5 U/mL of TPCK-treated trypsin (Sigma-Aldrich, one unit causes a change in A253 of 0.001 per min at pH 7.6 at 25° C. using BAEE as a substrate) reconstituted in 50 mM Tris HCl, 20 mM CaCl2, pH 8.0; and 4) 0.5 U/mL of α-chymotrypsin (Sigma-Aldrich, one unit hydrolyzes 1.0 μmole of BTEE per min at pH 7.8 at 25° C.) reconstituted in 80 mM Tris-HCl, 100 mM CaCl2, pH 7.8.
(§2) Aliquots of digested human lubricin and BSF (200 μL) were removed after 2, 4, 6, 12, and 24 hours and the reaction was stopped by adding E-64 (L-trans-epoxysuccinyl-leucyl-amido-(4-guanidino)-butane, Sigma-Aldrich) to a final concentration of 100 μM (CB) or phenylmethanesulfonyl fluoride (PMSF, Sigma-Aldrich) to a final concentration of 1 mM (NE).
(§3) The boundary lubricating abilities of protease-treated human lubricin and BSF were measured using a friction apparatus as reported by Davis et al., J. Biomech. Eng. 101:185-192, 1979. Lubricant (200 μL) was applied between a bearing of latex and a ring of polished glass with a contact area of 1.59 cm^2. The latex was oscillated, under a pressure of 0.35×10^6 N/m^2, against the polished glass with an entraining velocity of 0.37 mm/sec. The bearing system was axially loaded within a gimbals system free to rotate around two perpendicular horizontal axes. The friction apparatus recorded displacements of the gimbals system around the vertical loading axis through a linear displacement voltage transducer, where the output was directly proportional to the frictional torque (F). A bearing load of 70 newtons (N) was related to the coefficient of friction (μ) via Amonton's law, F=μN.
(§4) The μ of the lubricant was recorded at room temperature and was preceded by a baseline measurement of μ with normal saline (NS). Lubrication was manifested by a reduction in μ by the lubricant relative to that of NS. Negative Δμ (−Δμ) values indicate lubrication whereas positive Δμ (+Δμ) indicate friction. Addition of 200 μL of lubricant was followed by bringing the bearing surfaces close enough so that the solution wet both surfaces. After 5 min for equilibration, the latex-coated bearing was brought to rest on the glass as it was oscillating. Voltage measurements were recorded at 1, 3, and 5 min. After 5 min, the surfaces were separated for 2 min and then brought back together for three additional 5 min session. The 3 and 5 min μ values of the last two 5 min session were recorded and averaged, and data were later combined with another duplicate experiment providing 8 distinct measurements of μ.

purified human lubricin [2] = test: In vitro friction assay of protease-treated purified human lubricin; assay type: biochemical; details: enzymes 0.5 U/mL, Lubricin = no enzyme, latex:glass bearing
Protocol: as §1, §2, §3, §4

purified human lubricin [3] = test: Western blot of protease-treated purified human lubricin (PNA-peroxidase and pAb J108); assay type: biochemical
Protocol: as §1, with “7.8. […]” for “7.8.”
Probing was performed using pAb J108, which recognizes an epitope; […], encoded by exon 3 within the amino-terminus of human lubricin/SZP and present in all alternatively spliced isoforms (Jay et al., J. Orthop. Res. 19:677-687, 2001). […] Immunopositive bands were detected in a darkroom on BioMax film (Kodak, Rochester, N.Y.). […]

[4] = After intra-articular injection of 5 μl containing 0.05 U, 2 hour treatment at room temperature
[5] = Before intra-articular injection (baseline)

Row | Molecule | Friction coefficient μ ± S.D. (excised murine joints; [4]) | Friction coefficient μ ± S.D. (excised murine joints; [5]) | average increase in μ (excised murine joints) [%] | Change in coefficient of friction Δμ ± S.D. ([1]; 0 hrs) | Change in coefficient of friction Δμ ± S.D. ([1]; 2 hrs) | Change in coefficient of friction Δμ ± S.D. ([1]; 4 hrs) | Change in coefficient of friction Δμ ± S.D. ([1]; 6 hrs) | Change in coefficient of friction Δμ ± S.D. ([1]; 12 hrs) | Change in coefficient of friction Δμ ± S.D. ([1]; 24 hrs) | Change in coefficient of friction Δμ ± S.D. (purified human lubricin [2]; 0 hrs) | Change in coefficient of friction Δμ ± S.D. (purified human lubricin [2]; 2 hrs) | Change in coefficient of friction Δμ ± S.D. (purified human lubricin [2]; 4 hrs) | Change in coefficient of friction Δμ ± S.D. (purified human lubricin [2]; 6 hrs) | Change in coefficient of friction Δμ ± S.D. (purified human lubricin [2]; 12 hrs) | Change in coefficient of friction Δμ ± S.D. (purified human lubricin [2]; 24 hrs) | Degradation of lubricin (band intensities) (purified human lubricin [3]; 0.5 U/mL, 2, 4, 6, 12, and 24 hours post-treatment) | pAb J108 immunoreactive bands (purified human lubricin [3]; following NE treatment for 2 hours at 37° C.) | PNA and J108 reactivity of lubricin (purified human lubricin [3]; after 2 hours of treatment (data not shown))
1 | Neutrophil Elastase: protease (Sigma-Aldrich) used to treat lubricin, BSF and murine joints | 0.0028 ± 0.0008 | 0.0022 ± 0.0005 | 27.3 | −0.061 ± 0.005 | −0.039 ± 0.001 | 0.007 ± 0.001 | 0.009 ± 0.001 | 0.010 ± 0.001 | 0.013 ± 0.002 | −0.068 ± 0.005 | −0.038 ± 0.005 | −0.019 ± 0.004 | 0.004 ± 0.001 | 0.015 ± 0.003 | 0.054 ± 0.006 | time-dependent degradation of lubricin | no pAb J108 immunoreactive bands were detected | 
2 | B1 | 0.0034 ± 0.0003 | 0.0018 ± 0.0001 | 88.9 | −0.061 ± 0.005 | −0.031 ± 0.005 | −0.015 ± 0.002 | 0.005 ± 0.001 | 0.009 ± 0.003 | 0.012 ± 0.004 | −0.068 ± 0.005 | 0.025 ± 0.006 | 0.032 ± 0.005 | 0.038 ± 0.001 | 0.046 ± 0.005 | 0.049 ± 0.005 |  |  | complete loss of PNA and J108 reactivity
